Data published in patent US7947742B2 (Civitas Therapeutics, Inc., priority 2002, dated 2011).
Like-named read-outs stand apart in the source and are kept apart here.

Assays:
[1] = Stability of epinephrine in dry powders with antioxidants, loosely capped vials (Example 10), HPLC; format: physicochemical; settings: 40° C. and 15% RH, compared to control containing no antioxidants
Text: Solution preparation. […] The leucine and the antioxidant were present at a combined 82% of the total solids concentration. The two phases were static-mixed immediately prior to being spray dried.
Solutions containing BHT, Vitamin E and Vitamin C were made using a slightly different procedure as follows. […] Additional ethanol pure solvent was static-mixed with the 50/50 ethanol/water solution to form a 70/30 (v/v) ethanol/water solution. The Vitamin E formulation at the 0.3% and 0.9% loadings were prepared as follows. The Vitamin E at these levels was dissolved in the complete organic phase and static-mixed with the aqueous phase which prevented the Vitamin E from precipitating out of solution. Vitamin C was only dissolved in the aqueous phase at 0.9% and the three other powders containing vitamin C at 0.6, 0.9 and 2.0% was prepared with Vitamin C dissolved in the organic phase. Spray drying of all of the powders was performed as described for Formulation IX using the procedure of Example 7.
Stability conditions and analysis. 50 mg of powder was placed into a 7 mL scintillation vial. The vial was loosely capped and placed inside an oven at 40° C. and approximately 15% relative humidity (RH). Samples were analyzed immediately (T0) and after 1, 2, 4 and 8 weeks of such storage. Controls containing no antioxidants (i.e., Formulation IX) were also placed at 45° C. and 50° C. loosely capped.

[2] = Rat pharmacokinetics, plasma epinephrine after intratracheal insufflation or IM injection (Example 12); format: in vivo, Sprague Dawley rats; settings: rats, injected intramuscularly with epinephrine in solution, up to 20 minutes
Protocol: (§1) Blood samples were taken from the rats via jugular catheters at time points 0, 2.5, 5, 10, and 20 minutes following dosing. Measurements of heart rate were also made at the same time points.
Dose Administration. The powder was delivered to the lungs of rats by an insufflation technique. The insufflator device was from PennCentury (Philadelphia, Pa.). The delivery tube of the insufflator was inserted intratracheally through the mouth until the tip of the tube was about a centimeter from the carina (first bifurcation). […] The volume of […] used to deliver the powder from the sample chamber was 3 mL, which was achieved from a charged syringe. The syringe was recharged and discharged two more times for a total of three discharges per powder dose in order to decrease or eliminate powder residues in the sample chamber.
Study Design. The jugular vein of animals used in pharmacokinetics studies was catheterized with PE90 on the day before the dosing and sampling was performed. A total of six animals were used in this study. For anesthesia (catheter placement and powder dosing), a mixture of ketamine (25 mg), xylazine (3 mg), and acepromazine (0.2 mg) was injected intraperitoneally (IP) into each animal. […] Blood was taken and heart rate was measured using a pulse oximeter attached to the right hind limb of the rats at time 0, 2.5, 5.0, 10.0, and 20.0 minutes. […]

healthy male subjects = assay: Phase I human pharmacodynamics, potassium change from baseline (Example 15); format: in vivo, humans; settings: dry powder 800 micrograms, EpiPen 300 micrograms, standard IM 300 micrograms
Protocol: Safety and PK information was obtained for at least 2 hours following dosing.

Male Sprague Dawley rats = assay: Rat heart rate by pulse oximeter after dosing (Example 12); format: in vivo
Protocol: as §1
Study Design. The jugular vein of animals used in pharmacokinetics studies was catheterized with PE90 on the day before the dosing and sampling was performed. A total of six animals were used in this study. For anesthesia (catheter placement and powder dosing), a mixture of ketamine (25 mg), xylazine (3 mg), and acepromazine (0.2 mg) was injected intraperitoneally (IP) into each animal. The rats were placed on a heating pad after catheter placement to recover. After powder dosing, the rats were placed back in their respective cages. Identification numbers assigned to the rats were written on their tails as well as on the cage cards. Blood was taken and heart rate was measured using a pulse oximeter attached to the right hind limb of the rats at time 0, 2.5, 5.0, 10.0, and 20.0 minutes. The blood samples were collected by syringe from the jugular vein catheter. The blood was carefully ejected into EDTA coated tubes, mixed and then centrifuged for 5 minutes at 14,000 g to separate the plasma from the cells. Plasma was placed into clean microfuge tubes and stored refrigerated until received at the laboratory. […]

[3] = Phase I human pharmacokinetics of single doses (Example 15); format: in vivo, humans
Protocol: The following example describes a clinical study evaluating inhaled dry powder porous particles containing epinephrine (Formulation VII, as described in Table A). The study was a Phase I, randomized, double blind, placebo-controlled, dose escalation study of the safety, tolerability and pharmacokinetics (PK) of single doses of dry powder epinephrine in healthy male subjects. […] Safety and PK information was obtained for at least 2 hours following dosing.

SMILES: O=C1O[C@H]([C@@H](O)CO)C(O)=C1O [Ascorbic acid, ascorbic acid]
- protection against degradation of epinephrine (in words) [1]: not effective antioxidants

SMILES: Cc1cc(C(C)(C)C)c(O)c(C(C)(C)C)c1 [BHT, butylated hydroxytoluene]
- protection against degradation of epinephrine (in words) [1]: not effective antioxidants

SMILES: O=C(O)CN(CCN(CC(=O)O)CC(=O)O)CC(=O)O [EDTA, ethylenediamine tetra-acetic acid]
- protection against degradation of epinephrine (in words) [1]: good protection against degradation of epinephrine

SMILES: CNCC(O)c1ccc(O)c(O)c1 (centres unmarked) [Epinephrine, 4-[1-hydroxy-2-(methylamino)ethyl]-1,2-benzenediol]
- Plasma epinephrine levels (in words) [2]: very low and not significantly different from room air controls
- time of maximal potassium mean change from baseline (healthy male subjects): continued to decrease through 60 minutes post-dose
- heart rate increase in one animal (Male Sprague Dawley rats; one rat intramuscularly injected, observed out to 40 minutes, 25 minutes following dosing): 340 beats/minute
- heart rate compared to baseline (in words) (Male Sprague Dawley rats; rats, IM-injected, up to 20 minutes): did not exhibit a significant increase in heart rate
- CMAX % CV ([3]; healthy male subjects, standard IM injection, 300 micrograms, n = 7): 66%
- Cmax ([3]; male, human, plasma, im, 300 micrograms, healthy male subjects, standard IM injection, 300 micrograms, n = 7, read-out: CMAX Mean (SD)): 0.263 ng/mL
- Tmax ([3]; male, human, plasma, im, 300 micrograms, healthy male subjects, standard IM injection, 300 micrograms, n = 7, read-out: TMAX (range)): 1 to 60 min
- Cmax ([3]; male, human, plasma, im, 300 micrograms, standard IM injection 300 micrograms, read-out: CMAX values of 2 subjects with higher values): 0.405 ng/mL
- Cmax ([3]; male, human, plasma, im, 300 micrograms, standard IM injection 300 micrograms, read-out: CMAX values of the others in the group): ≤ 0.22 ng/mL
- CMAX values of 2 subjects with higher values ([3]; standard IM injection 300 micrograms): 595 pg/mL

SMILES: O=S([O-])S(=O)(=O)[O-].[Na+].[Na+] [Sodium metabisulfite, sodium metabisulfite]
- protection against degradation of epinephrine (in words) [1]: good protection against degradation of epinephrine
